From patent US9115092B2, “Substituted quinazoline and pyrido-pyrimidine derivatives” (Asana Biosciences, LLC, priority 2010, dated 2015)

Assays:
[1] = molecular target: T1, PI3Kα (wild-type), P110/P85α (Homo sapiens, UniProt P42336); experiment: PI3 Kinase TR-FRET assay, PI3Kα (wild-type); format: biochemical
T1 construct: made in house; host or cells: SF9 insect cells
How it was run: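 Sf9-expressed His-purified P110/P85α (5 ng) preincubated 60 min RT with compound and PIP2 in buffer with 40 mM MgCl2, 5 mM DTT; reaction started with ATP (PIP2 and ATP both 10 μM), 30 min RT. PIP3 detected by TR-FRET displacement, 665/615 nm ratio; IC50 from dose-response curves.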

[2] = molecular target: T2, mTOR kinase (Homo sapiens, UniProt P42345); experiment: mTOR kinase TR-FRET assay; format: biochemical; settings: read-out: mTO R
T2 construct: purchased Millipore, USA
How it was run: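 Compounds preincubated 60 min with mTOR (5 ng) in HEPES pH 7.5, EGTA, MnCl2; ULight-p70 S6K Thr389 peptide (50 nM) and ATP (20 μM) then added, 60 min at room temperature. EDTA-stopped, Eu-anti-phospho antibody detection by TR-FRET (665/615 nm); IC50 from variable-slope sigmoidal fit.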

[3] = test system: pS6RP(S235/236), PC3 cells; experiment: In-cell Western assay, pS6RP(S235/236) in PC3 cells; format: cell-based, human; settings: Homo sapiens, PC-3, In-cell Western
Procedure: Cells from human prostate cancer cell line PC3 (American Type Culture Collection (ATCC), Manassas, Va. 20108 USA) were seeded at an optimal density of 22,000 cell/well in 96-well plates containing Ham's F12K medium (90 μL) and incubated overnight. The compound dilutions were carried out in 100% DMSO followed by a dilution in the medium. Test compounds were added in serial dilutions to the wells and incubated for 2 h. The cells were washed and fixed with 4% paraformaldehyde. After incubation at room temperature for 1 h in the dark, blocking was done for 2 h at room temperature. Primary antibodies for phosphorylated (p) AKT(5473) (phosphorylated at serine 473), pAKT(T308) (phosphorylated at threonine 308) and for pS6RP(S235/236) (phosphorylated at serine 235/236) (commercially available from Cell Signaling Technology®, whose protocol was followed for the in-cell western assay, were diluted to the required concentration and added to the corresponding wells followed by overnight incubation at 4° C. Eu-labeled rabbit (PE) (Perkin-Elmer USA catalog #AD0106) secondary antibody was added and incubated for 2 h at room temperature. Delfia® enhancement solution (cat #1244-105, Perkin Elmer USA) was subsequently added to the plate before taking the reading at 615 nm with excitation wavelength of 340 nm, after which 0.5 μg/mL of Hoechst® 33258 dye (Catalog #86140-5, Sigma) was added to the plate and fluorescence emission was read at 460 nm with 355 nm excitation, to evaluate the correction factor. IC50 values were calculated using a sigmoidal dose-response curve fit in GraphPad Prism® v5 software.

[4] = test system: PC3 cells; experiment: XTT assay for cell viability, PC3 cells; format: cell-based, human; settings: Homo sapiens, PC-3, cell viability
How it was run: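 PC3 cells seeded at 1000 cells/well, grown 24 h, then exposed to serial dilutions of compound for 96 h. Viability read by XTT dye at 37° C, absorbance 465 nm. EC50 from sigmoidal dose-response fit.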

T1 sequence (P42336 whole entry): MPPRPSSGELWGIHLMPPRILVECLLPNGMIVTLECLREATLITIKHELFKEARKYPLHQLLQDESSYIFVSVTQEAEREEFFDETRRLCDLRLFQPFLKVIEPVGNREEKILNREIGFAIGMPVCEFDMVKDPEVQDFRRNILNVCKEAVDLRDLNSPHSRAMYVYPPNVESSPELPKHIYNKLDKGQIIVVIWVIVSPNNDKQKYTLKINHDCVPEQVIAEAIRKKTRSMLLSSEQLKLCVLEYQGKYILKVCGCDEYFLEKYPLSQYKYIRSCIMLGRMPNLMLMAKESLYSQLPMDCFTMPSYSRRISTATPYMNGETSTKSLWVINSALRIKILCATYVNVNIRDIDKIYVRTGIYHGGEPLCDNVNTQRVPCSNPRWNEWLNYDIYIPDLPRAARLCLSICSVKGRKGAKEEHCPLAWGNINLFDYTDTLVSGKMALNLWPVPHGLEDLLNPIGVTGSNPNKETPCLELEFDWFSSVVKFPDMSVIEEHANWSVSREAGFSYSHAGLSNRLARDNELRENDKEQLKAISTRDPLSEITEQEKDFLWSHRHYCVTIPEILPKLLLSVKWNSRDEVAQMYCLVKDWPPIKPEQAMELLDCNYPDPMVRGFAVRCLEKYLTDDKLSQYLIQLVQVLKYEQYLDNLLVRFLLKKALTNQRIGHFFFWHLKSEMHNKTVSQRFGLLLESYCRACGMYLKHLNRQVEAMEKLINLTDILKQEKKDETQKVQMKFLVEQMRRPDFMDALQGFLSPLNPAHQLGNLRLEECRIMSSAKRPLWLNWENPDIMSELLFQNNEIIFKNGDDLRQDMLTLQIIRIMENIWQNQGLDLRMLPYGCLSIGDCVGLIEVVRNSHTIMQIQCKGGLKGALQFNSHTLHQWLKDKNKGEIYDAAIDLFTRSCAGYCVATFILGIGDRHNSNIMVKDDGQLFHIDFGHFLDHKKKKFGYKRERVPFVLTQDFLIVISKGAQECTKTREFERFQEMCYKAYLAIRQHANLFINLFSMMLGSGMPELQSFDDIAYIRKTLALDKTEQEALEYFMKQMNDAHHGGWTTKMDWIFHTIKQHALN
T1 sequence (P27986 whole entry partner): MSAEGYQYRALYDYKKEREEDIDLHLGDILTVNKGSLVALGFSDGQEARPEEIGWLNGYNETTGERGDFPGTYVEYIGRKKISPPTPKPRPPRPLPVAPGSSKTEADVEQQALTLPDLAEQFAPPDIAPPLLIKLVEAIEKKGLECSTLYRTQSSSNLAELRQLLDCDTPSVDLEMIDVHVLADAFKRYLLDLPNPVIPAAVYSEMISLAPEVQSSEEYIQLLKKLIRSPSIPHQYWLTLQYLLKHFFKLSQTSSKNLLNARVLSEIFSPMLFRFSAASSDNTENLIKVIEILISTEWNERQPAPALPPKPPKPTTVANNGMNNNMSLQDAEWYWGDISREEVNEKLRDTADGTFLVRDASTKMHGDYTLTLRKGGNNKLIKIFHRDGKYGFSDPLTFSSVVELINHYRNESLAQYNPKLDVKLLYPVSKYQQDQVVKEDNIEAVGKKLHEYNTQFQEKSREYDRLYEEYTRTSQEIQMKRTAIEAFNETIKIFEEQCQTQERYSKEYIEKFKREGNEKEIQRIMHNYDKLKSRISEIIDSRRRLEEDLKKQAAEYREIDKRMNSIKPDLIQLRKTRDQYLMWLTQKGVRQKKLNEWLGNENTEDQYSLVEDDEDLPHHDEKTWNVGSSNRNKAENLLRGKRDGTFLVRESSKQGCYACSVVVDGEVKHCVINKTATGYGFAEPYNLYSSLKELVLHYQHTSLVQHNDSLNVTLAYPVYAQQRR

| SMILES | IC50 [1] [nM] | IC50 [2] [nM] | IC50 [3] [nM] | IC50 [4] [nM] |
| --- | --- | --- | --- | --- |
| CN(C)C1CCN(C(=O)c2ccc(NC(=O)Nc3ccc(-c4nc(N5CCOCC5)c5ccc(-c6cccnc6F)cc5n4)cn3)cc2)CC1 [Example 81, 1-(4-(4-(dimethylamino)piperidine-1-carbonyl)phenyl)-3-(5-(7-(2-fluoropyridin-3-yl)-4-morpholine-quinazolin-2-yl)pyridin-2-yl)urea] | < 50 | < 50 | < 100 | 501 to 5000 |
| CN(C)CCn1cc(-c2ccc3c(N4CCOCC4)nc(-c4ccc(NC(=O)Nc5ccc(C(=O)N(C)C)cc5)cc4)nc3c2)cn1 [Example 83, 4-(3-(4-(7-(1-(2-(dimethylamino)ethyl)-1H-pyrazol-4-yl)-4-morpholino-quinazolin-2-yl)phenyl)ureido)-N,N-dimethyl-benzamide] | 50 to 200 | < 50 | 201 to 10000 | 201 to 10000 |
| CN(C)C(=O)c1ccc(NC(=O)Nc2ccc(-c3nc(N4CCOCC4)c4ccc(-c5cncnc5)cc4n3)cc2F)cc1 [Example 84, 4-(3-(2-fluoro-4-(4-morpholino-7-(pyrimidin-5-yl)quinazolin-2-yl)phenyl)ureido)-N,N-dimethyl-benzamide] | 50 to 200 | < 50 | 201 to 10000 | 201 to 10000 |
| CN(C)C(=O)c1ccc(NC(=O)Nc2ccc(-c3nc(N4CCOCC4)c4ncc(-c5cnn(C)c5)cc4n3)cn2)cc1 [Example 85, N,N-dimethyl-4-(3-(5-(7-(1-methyl-1H-pyrazol-4-yl)-4-morpholino-pyrido[3,2-d]pyrimidin-2-yl)pyridin-2-yl)ureido)-benzamide] | < 50 | < 50 | 201 to 10000 | 201 to 10000 |
| CNC(=O)c1ccc(NC(=O)Nc2ccc(-c3nc(N4CCOCC4)c4ccc(-c5cncnc5)cc4n3)cc2)cc1 [Example 88, N-methyl-4-(3-(4-(4-morpholino-7-(pyrimidin-5-yl)quinazolin-2-yl)phenyl)ureido)-benzamide] | 50 to 200 | < 50 | < 100 | 201 to 10000 |
| CNC(=O)c1ccc(NC(=O)Nc2ccc(-c3nc(N4CCOCC4)c4ncc(-c5cnn(C)c5)cc4n3)cc2)cc1 [Example 89, N-methyl-4-(3-(4-(7-(1-methyl-1H-pyrazol-4-yl)-4-morpholino-pyrido[3,2-d]pyrimidin-2-yl)phenyl)ureido)-benzamide] | < 50 | < 50 | 201 to 10000 | 201 to 10000 |
| CN(C)C(=O)c1ccc(NC(=O)Nc2ccc(-c3nc(N4CCOCC4)c4ccc(-c5cccnc5F)cc4n3)cc2F)cc1 [Example 91, 4-(3-(2-fluoro-4-(7-(2-fluoropyridin-3-yl)-4-morpholino-quinazolin-2-yl)phenyl)ureido)-N,N-dimethyl-benzamide] | < 50 | < 50 | 201 to 10000 | 201 to 10000 |
| CN(C)C(=O)c1ccc(NC(=O)Nc2ccc(-c3nc(N4CCOCC4)c4ncc(-c5cnc(N)nc5)cc4n3)cc2)cc1 [Example 92, 4-(3-(4-(7-(2-aminopyrimidin-5-yl)-4-morpholino-pyrido[3,2-d]pyrimidin-2-yl)phenyl)ureido)-N,N-dimethyl-benzamide] | < 50 | < 50 | 201 to 10000 | 201 to 10000 |
| COc1ncc(-c2cnc3c(N4CCOCC4)nc(-c4ccc(NC(=O)Nc5ccc(C(=O)N(C)C)cc5)cc4)nc3c2)cn1 [Example 94, 4-(3-(4-(7-(2-methoxypyrimidin-5-yl)-4-morpholino-pyrido[3,2-d]pyrimidin-2-yl)phenyl)ureido)-N,N-dimethyl-benzamide] | < 50 | < 50 | 201 to 10000 | 201 to 10000 |
| CN(C)C(=O)c1ccc(NC(=O)Nc2ccc(-c3nc(N4CCOCC4)c4ncc(-c5ccnnc5)cc4n3)cc2)cc1 [Example 96, N,N-dimethyl-4-(3-(4-(4-morpholino-7-(pyridazin-4-yl)pyrido[3,2-d]pyrimidin-2-yl)phenyl)ureido)-benzamide] | < 50 | < 50 | 201 to 10000 | 201 to 10000 |
| CN(C)C(=O)c1ccc(NC(=O)Nc2ccc(-c3nc(N4CCOCC4)c4ccc(-c5ccnnc5)cc4n3)cc2F)cc1 [Example 98, 4-(3-(2-fluoro-4-(4-morpholino-7-(pyridazin-4-yl)quinazolin-2-yl)phenyl)ureido)-N,N-dimethyl-benzamide] | 50 to 200 | < 50 | 201 to 10000 | 201 to 10000 |

The next lines start with the values.

| IC50 [1] [nM] | IC50 [2] [nM] | IC50 [3] [nM] | IC50 [4] [nM] | SMILES |
| --- | --- | --- | --- | --- |
| 50 to 200 | < 50 | 201 to 10000 | 201 to 10000 | CN(C)C(=O)c1ccc(NC(=O)Nc2ccc(-c3nc(N4CCOCC4)c4ccc(-c5ccnnc5)cc4n3)cc2)cc1 [Example 86, N,N-dimethyl-4-(3-(4-(4-morpholino-7-(pyridazin-4-yl)quinazolin-2-yl)phenyl)ureido)-benzamide] |
| 50 to 200 | < 50 | < 100 | < 100 | Cc1ccc(-c2cc3nc(-c4ccc(NC(=O)Nc5ccc(C(=O)N(C)C)cc5)cc4)nc(N4CCOCC4)c3cc2F)o1 [Example 87, 4-(3-(4-(6-fluoro-7-(5-methylfuran-2-yl)-4-morpholino-quinazolin-2-yl)phenyl)ureido)-N,N-dimethyl-benzamide] |
| < 50 | < 50 | 201 to 10000 | 201 to 10000 | Cc1ccncc1-c1cnc2c(N3CCOCC3)nc(-c3ccc(NC(=O)Nc4ccc(C(=O)N(C)C)cc4)cc3)nc2c1 [Example 93, N,N-dimethyl-4-(3-(4-(7-(4-methylpyridin-3-yl)-4-morpholino-pyrido[3,2-d]pyrimidin-2-yl)phenyl)ureido)-benzamide] |
| 50 to 200 | 50 to 200 | 501 to 5000 | < 100 | COc1cccc(-c2ccc3c(N4CCOCC4)nc(-c4ccc(NC(=O)Nc5ccc(C(=O)N(C)C)cc5)cc4)nc3c2)n1 [Example 95, 4-(3-(4-(7-(6-methoxypyridin-2-yl)-4-morpholino-quinazolin-2-yl)phenyl)ureido)-N,N-dimethyl-benzamide] |
| < 50 | < 50 | 201 to 10000 | 201 to 10000 | CN(C)C(=O)c1ccc(NC(=O)Nc2ccc(-c3nc(N4CCOCC4)c4ccc(-c5cnn(C)c5)cc4n3)cc2F)cc1 [Example 97, 4-(3-(2-fluoro-4-(7-(1-methyl-1H-pyrazol-4-yl)-4-morpholino-quinazolin-2-yl)phenyl)ureido)-N,N-dimethyl-benzamide] |
| < 50 | < 50 | 201 to 10000 | 201 to 10000 | CN(C)C(=O)c1ccc(NC(=O)Nc2ccc(-c3nc(N4CCOCC4)c4cc(F)c(-c5cncnc5)cc4n3)cc2F)cc1 [Example 99, 4-(3-(2-fluoro-4-(6-fluoro-4-morpholino-7-(pyrimidin-5-yl)quinazolin-2-yl)phenyl)ureido)-N,N-dimethyl-benzamide] |
| < 50 | < 50 | 201 to 10000 | 201 to 10000 | Cc1ccncc1-c1ccc2c(N3CCOCC3)nc(-c3ccc(NC(=O)Nc4ccc(C(=O)N(C)C)cc4)c(F)c3)nc2c1 [Example 100, 4-(3-(2-fluoro-4-(7-(4-methylpyridin-3-yl)-4-morpholino-quinazolin-2-yl)phenyl)ureido)-N,N-dimethyl-benzamide] |
